Measured values from patent publication US7393812B2, “Methylidene mevalonates and their use as herbicides” (Dow AgroSciences LLC, priority 2004, dated 2008).

Experiments:
Format in all cases: in vivo
[1] = tested on: morningglory (Ipomoea hederacea, IPOHE); assay: Post-emergent evaluation; details: after 2 weeks
Procedure: (§1) Seeds of the desired test plant species were planted in Grace-Sierra MetroMix® 306 planting mixture, which typically has a pH of 6.0 to 6.8 and an organic matter content of about 30 percent, in plastic pots with a surface area of 64 square centimeters. When required to ensure good germination and healthy plants, a fungicide treatment and/or other chemical or physical treatment was applied. The plants were grown for 7-21 days in a greenhouse with an approximate 15 hr photoperiod which was maintained at about 23-29° C. during the day and 22-28° C. during the night. Nutrients and water were added on a regular basis and supplemental lighting was provided with overhead metal halide 1000-Watt lamps as necessary. The plants were employed for testing when they reached the first or second true leaf stage.
(§2) A weighed amount, determined by the highest rate to be tested, of each test compound was placed in a 20 mL glass vial and was dissolved in 4 mL of a 97:3 v/v (volume/volume) mixture of acetone and dimethyl sulfoxide (DMSO) to obtain concentrated stock solutions. […] The concentrated stock solutions obtained were diluted with an aqueous mixture containing acetone, water, isopropyl alcohol, DMSO, Atplus 411F crop oil concentrate, and Triton X-155 surfactant in a 48.5:39:10:1.5:1.0:0.02 v/v ratio to obtain spray solutions of known concentration. The solutions containing the highest concentration to be tested were prepared by diluting 2 mL aliquots of the stock solution with 13 mL of the mixture and lower concentrations were prepared by serial dilution of the stock solution. Approximately 1.5 mL aliquots of each solution of known concentration were sprayed evenly onto each of the test plant pots using a DeVilbiss atomizer driven by compressed air pressure of 2 to 4 psi ([…]) to obtain thorough coverage of each plant. Control plants were sprayed in the same manner with the aqueous mixture. In this test an application rate of 1 ppm results in the application of approximately 1 g/Ha.
(§3) The treated plants and control plants were placed in a greenhouse as described above and watered by sub-irrigation to prevent wash-off of the test compounds. […] Species abbreviations as described for Table I with the following additions: soybean (Glycine max, GLXMA), rape (Brassica napus, BRSNN), chickweed (Stellaria media, STEME), cocklebur (Xanthium strumarium XANST), lambsquarters (Chenopodium album, CHEAL), violet (Viola tricolor, VIOTR), bindweed (Polygonum convolvulus, POLCO), spurge (Euphorbia heterophylla, EPHHL), Canada thistle (Cirsium arvense, CIRAR), corn (Zea mays, ZEAMX), rice (Oryza sativa, ORYSA), wheat (Triticum aestivum, TRZAS), crabgrass (Digitaria sanguinalis, DIGSA), shattercane (Sorghum vulgare, SORVU) and yellow nutsedge (Cyperus esculentus, CYPES).
(§4) By applying the well-accepted probit analysis as described by J. Berkson in Journal of the American Statistical […], 48, 565 (1953) and by D. Finney in “Probit Analysis” Cambridge University Press (1952), similar data can be used to calculate GR80 values, which are defined as growth reduction factors that correspond to the effective dose of herbicide required to kill or control 80 percent of a target plant. Species abbreviations are as previously defined.

[2] = tested on: giant foxtail (Setaria faberi, SETFA); assay: Post-emergent evaluation; details: after 2 weeks
Procedure: as §1, §2, §3, §4

[3] = tested on: shattercane (Sorghum vulgare, SORVU); assay: Post-emergent evaluation; details: after 2 weeks
Procedure: as §1, §2, §3, §4

[4] = tested on: barnyardgrass (Echinochloa crusgalli, ECHCG); assay: Post-emergent evaluation; details: after 2 weeks
Procedure: as §1, §2, §3, §4

[5] = tested on: velvetleaf (Abutilon theophrasti, ABUTH); assay: Post-emergent evaluation; details: after 2 weeks
Procedure: as §1, §2, §3, §4

[6] = tested on: violet (Viola tricolor, VIOTR); assay: Post-emergent evaluation; details: after 2 weeks
Procedure: as §1, §2, §3, §4

[7] = tested on: chickweed (Stellaria media, STEME); assay: Post-emergent evaluation; details: after 2 weeks
Procedure: as §1, §2, §3, §4

[8] = tested on: morningglory (Ipomoea hederacea, IPOHE); assay: Synergistic herbicidal activity, foliar track sprayer; details: methylidene mevalonate 933 g ae/ha alone, 14 days, 1% crop oil concentrate
Procedure: (§5) Methylidene mevalonate alone and in combination with nonanoic acid was applied to the foliage of rapidly growing plant material utilizing a track sprayer calibrated to deliver an application volume of 187 L/ha. These treatments were applied to both broadleaf and grass weed species. All treatments contained 1% crop oil concentrate. Assessment of herbicidal activity was performed visually relative to untreated controls after 14 days incubation in the greenhouse. Species abbreviations are as previously defined.

[9] = tested on: crabgrass (Digitaria sanguinalis, DIGSA); assay: as above; details: methylidene mevalonate 933 g ae/ha alone, 14 days, 1% crop oil concentrate
Procedure: as §5

[10] = tested on: lambsquarters (Chenopodium album, CHEAL); assay: as above; details: methylidene mevalonate 933 g ae/ha alone, 14 days, 1% crop oil concentrate
Procedure: as §5

[11] = tested on: wild oats (Avena fatua, AVEFA); assay: as above; details: methylidene mevalonate 933 g ae/ha alone, 14 days, 1% crop oil concentrate
Procedure: as §5

`C=C(CO)C(C)(O)CC(=O)O` (stereo not drawn) [methylidene mevalonate, 3-hydroxy-4-(hydroxymethyl)-3-methylpent-4-enoic acid] was tested, and the “Postemergent % Control” value ([1]; spray concentration 125 ppm) was 40%, the “Postemergent % Control” value ([1]; spray concentration 250 ppm) was 50% and the “Postemergent % Control” value ([1]; spray concentration 500 ppm) was 70%. The “Postemergent % Control” value ([1]; spray concentration 1000 ppm) was 80%, the “Postemergent % Control” value ([1]; spray concentration 2000 ppm) was 80% and the “Postemergent % Control” value ([2]; spray concentration 125 ppm) was 30%. For the same compound, the “Postemergent % Control” value ([2]; spray concentration 250 ppm) was 70%, the “Postemergent % Control” value ([2]; spray concentration 500 ppm) was 70% and the “Postemergent % Control” value ([2]; spray concentration 1000 ppm) was 80%. For the same compound, the “Postemergent % Control” value ([2]; spray concentration 2000 ppm) was 90%, the “Postemergent % Control” value ([3]; spray concentration 125 ppm) was 0% and the “Postemergent % Control” value ([3]; spray concentration 250 ppm) was 50%. For the same compound, the “Postemergent % Control” value ([3]; spray concentration 500 ppm) was 90%, the “Postemergent % Control” value ([3]; spray concentration 1000 ppm) was 90% and the “Postemergent % Control” value ([3]; spray concentration 2000 ppm) was 90%. For the same compound, the “Postemergent % Control” value ([4]; spray concentration 125 ppm) was 40%, the “Postemergent % Control” value ([4]; spray concentration 250 ppm) was 85% and the “Postemergent % Control” value ([4]; spray concentration 500 ppm) was 95%. For the same compound, the “Postemergent % Control” value ([4]; spray concentration 1000 ppm) was 95%, the “Postemergent % Control” value ([4]; spray concentration 2000 ppm) was 100% and the “Postemergent % Control” value ([5]; spray concentration 125 ppm) was 0%. For the same compound, the “Postemergent % Control” value ([5]; spray concentration 250 ppm) was 5%, the “Postemergent % Control” value ([5]; spray concentration 500 ppm) was 20% and the “Postemergent % Control” value ([5]; spray concentration 1000 ppm) was 50%. The “Postemergent % Control” value ([5]; spray concentration 2000 ppm) was 60%, the “Postemergent % Control” value ([6]; spray concentration 125 ppm) was 0% and the “Postemergent % Control” value ([6]; spray concentration 250 ppm) was 0%. For the same compound, the “Postemergent % Control” value ([6]; spray concentration 500 ppm) was 0%, the “Postemergent % Control” value ([6]; spray concentration 1000 ppm) was 25% and the “Postemergent % Control” value ([6]; spray concentration 2000 ppm) was 30%. For the same compound, the “Postemergent % Control” value ([7]; spray concentration 125 ppm) was 0%, the “Postemergent % Control” value ([7]; spray concentration 250 ppm) was 0% and the “Postemergent % Control” value ([7]; spray concentration 500 ppm) was 0%. The “Postemergent % Control” value ([7]; spray concentration 1000 ppm) was 20%, the “Postemergent % Control” value ([7]; spray concentration 2000 ppm) was 40% and the “Actual Injury % growth reduction” value [8] was 60%. The “Actual Injury % growth reduction” value [9] was 35%, the “Actual Injury % growth reduction” value [10] was 0% and the “Actual Injury % growth reduction” value [11] was 35%.
